# Results as given in patent US20210023238A1, “TRIPTOLIDE ANTIBODY CONJUGATES” (City of Hope, priority 2019, published 2021).
# Columns and labels:
# Type in all cases: cell-based
# H520 NSCLC cells = assay: CCK-8 cell proliferation / cytotoxicity, H520; settings: Homo sapiens, NCI-H520, H520 (EGFR+/-), 72 h
# Procedure: (§1) H520, H1299, and A549 cells were plated at a density of 3×10^3 cells/well in 96-well multiplates. […] Then after, 10 ul of CCK-8 solution was added to each well and further developed for 2 h. The absorbance values were detected at a wavelength of 450 nm using a Bio-Rad microplate reader. The cell viability was calculated by the optical density (OD) values of treated groups/OD values of control groups (Vehicle/PBS)×100%.
# H1299 NSCLC cells = assay: CCK-8 cell proliferation / cytotoxicity, H1299; settings: Homo sapiens, NCI-H1299, H1299 (EGFR+++), 72 h
# Procedure: as §1
# A549 NSCLC cells = assay: CCK-8 cell proliferation / cytotoxicity, A549; settings: Homo sapiens, A549 (EGFR+++), 72 h
# Procedure: as §1
structure (smiles),measurement,setting,value
"CC(C)[C@]12O[C@H]1[C@@H]1O[C@]13[C@]1(O[C@H]1C[C@H]1C4=C(CC[C@@]13C)C(=O)OC4)[C@@H]2O [TRP, Triptolide]",IC50,H520 NSCLC cells,3.13 nM
same,IC50,H1299 NSCLC cells,6.25 to 12.5 nM
same,IC50,A549 NSCLC cells,25 to 50 nM
